Measurements as given in US7608726B2, “Substituted indolepyridinium as anti-infective compounds” (Tibotec Pharmaceuticals Ltd., priority 2002, dated 2009).

What was measured:
Format in all cases: cell-based
wild type HIV-LAI strain = assay: Antiviral cellular assay (MT4 cells, MTT), wild type HIV-1 strain LAI; conditions: Human immunodeficiency virus 1, MT4; read-out: EC50, inhibition of wild-type HIV-LAI strain
Method: The compounds of the present invention were examined for anti-viral activity in a cellular assay. […] The cellular assay was performed according to the following procedure.
(§1) HIV- or mock-infected MT4 cells were incubated for five days in the presence of various concentrations of the inhibitor. At the end of the incubation period, the replicating virus in the control cultures has killed all HIV-infected cells in the absence of any inhibitor. Cell viability was determined by measuring the concentration of MTT, a yellow, water soluble tetrazolium dye that is converted to a purple, water insoluble formazan in the mitochondria of living cells only. Upon solubilization of the resulting formazan crystals with isopropanol, the absorbance of the solution was monitored at 540 nm. The values correlate directly to the number of living cells remaining in the culture at the completion of the five day incubation. The inhibitory activity of the compound was monitored on the virus-infected cells and was expressed as EC50 and EC90. These values represent the amount of the compound required to protect 50% and 90%, respectively, of the cells from the cytopathogenic effect of the virus. The toxicity of the compound was measured on the mock-infected cells and was expressed as CC50, which represents the concentration of compound required to inhibit the growth of the cells by 50%. The selectivity index (SI) (ratio CC50/EC50) is an indication of the selectivity of the anti-HIV activity of the inhibitor. Wherever results are reported as e.g. pEC50 or pCC50 values, the result is expressed as the negative logarithm of the result expressed as EC50 or CC50 respectively.
As a measure of the broad spectrum activity of the present compounds, the EC50 was determined. […] The fold resistance rounded to the nearest integer is mentioned between brackets.
(§2) Row WT: pEC50 against wild type HIV-LAI strain. The toxicity (Tox) is expressed as the pCC50 value as determined with mock transfected cells. ND means not determined.

[1] = test system: SIV (simian immunodeficiency virus); assay: Antiviral cellular assay, SIV; conditions: read-out: pEC50 towards SIV (converted)
HIV mutant B (K103N) = assay: Antiviral cellular assay, mutant HIV strain B; conditions: EC50 mutant/EC50 wild type, rounded to nearest integer
Method: as §1, with “The toxicity of the compound was measured on the mock-infected cells and was expressed as CC50, which represents the concentration of compound required to inhibit the growth of the cells by 50%. The selectivity index (SI) (ratio CC50/EC50) is an indication of the selectivity of the anti-HIV activity of the inhibitor.” left out, “respectively. […]” for “respectively.”
as §2

HIV mutant F (Y188L) = assay: Antiviral cellular assay, mutant HIV strain F; conditions: EC50 mutant/EC50 wild type, rounded to nearest integer
Method: as §1, with “The toxicity of the compound was measured on the mock-infected cells and was expressed as CC50, which represents the concentration of compound required to inhibit the growth of the cells by 50%. The selectivity index (SI) (ratio CC50/EC50) is an indication of the selectivity of the anti-HIV activity of the inhibitor.” left out, “respectively. […]” for “respectively.”
as §2

[2] = test system: HIV mutant K (multiple RT mutations, Table 1); assay: Antiviral cellular assay, mutant HIV strain K; conditions: EC50 mutant/EC50 wild type, rounded to nearest integer
Method: as §1, with “The toxicity of the compound was measured on the mock-infected cells and was expressed as CC50, which represents the concentration of compound required to inhibit the growth of the cells by 50%. The selectivity index (SI) (ratio CC50/EC50) is an indication of the selectivity of the anti-HIV activity of the inhibitor.” left out, “respectively. […]” for “respectively.”
as §2

[3] = test system: HIV mutant J (131L, L100I, K103N, E138G, Y181C, L214F); assay: Antiviral cellular assay, mutant HIV strain J; conditions: EC50 mutant/EC50 wild type, rounded to nearest integer
Method: as §1, with “The toxicity of the compound was measured on the mock-infected cells and was expressed as CC50, which represents the concentration of compound required to inhibit the growth of the cells by 50%. The selectivity index (SI) (ratio CC50/EC50) is an indication of the selectivity of the anti-HIV activity of the inhibitor.” left out, “respectively. […]” for “respectively.”
as §2

[4] = test system: HIV mutant D (L100I; K103N); assay: Antiviral cellular assay, mutant HIV strain D; conditions: EC50 mutant/EC50 wild type, rounded to nearest integer
Method: as §1, with “The toxicity of the compound was measured on the mock-infected cells and was expressed as CC50, which represents the concentration of compound required to inhibit the growth of the cells by 50%. The selectivity index (SI) (ratio CC50/EC50) is an indication of the selectivity of the anti-HIV activity of the inhibitor.” left out, “respectively. […]” for “respectively.”
as §2

[5] = test system: HIV mutant G (V106A, F227L); assay: Antiviral cellular assay, mutant HIV strain G; conditions: EC50 mutant/EC50 wild type, rounded to nearest integer
Method: as §1, with “The toxicity of the compound was measured on the mock-infected cells and was expressed as CC50, which represents the concentration of compound required to inhibit the growth of the cells by 50%. The selectivity index (SI) (ratio CC50/EC50) is an indication of the selectivity of the anti-HIV activity of the inhibitor.” left out, “respectively. […]” for “respectively.”
as §2

[6] = test system: HIV mutant C (L100I; K103N); assay: Antiviral cellular assay, mutant HIV strain C; conditions: EC50 mutant/EC50 wild type, rounded to nearest integer
Method: as §1, with “The toxicity of the compound was measured on the mock-infected cells and was expressed as CC50, which represents the concentration of compound required to inhibit the growth of the cells by 50%. The selectivity index (SI) (ratio CC50/EC50) is an indication of the selectivity of the anti-HIV activity of the inhibitor.” left out, “respectively. […]” for “respectively.”
as §2

HIV-2 = assay: Antiviral cellular assay, HIV-2; conditions: Human immunodeficiency virus 2; read-out: pEC50 towards HIV-2 (converted)
Method: as §1, with “The toxicity of the compound was measured on the mock-infected cells and was expressed as CC50, which represents the concentration of compound required to inhibit the growth of the cells by 50%. The selectivity index (SI) (ratio CC50/EC50) is an indication of the selectivity of the anti-HIV activity of the inhibitor.” left out
as §2

HIV mutant A (Y181C) = assay: Antiviral cellular assay, mutant HIV strain A; conditions: EC50 mutant/EC50 wild type, rounded to nearest integer
Method: as §1, with “The toxicity of the compound was measured on the mock-infected cells and was expressed as CC50, which represents the concentration of compound required to inhibit the growth of the cells by 50%. The selectivity index (SI) (ratio CC50/EC50) is an indication of the selectivity of the anti-HIV activity of the inhibitor.” left out, “respectively. […]” for “respectively.”
as §2

[7] = test system: HIV mutant I (K101E, K103N); assay: Antiviral cellular assay, mutant HIV strain I; conditions: EC50 mutant/EC50 wild type, rounded to nearest integer
Method: as §1, with “The toxicity of the compound was measured on the mock-infected cells and was expressed as CC50, which represents the concentration of compound required to inhibit the growth of the cells by 50%. The selectivity index (SI) (ratio CC50/EC50) is an indication of the selectivity of the anti-HIV activity of the inhibitor.” left out, “respectively. […]” for “respectively.”
as §2

HIV mutant E (F227C) = assay: Antiviral cellular assay, mutant HIV strain E; conditions: EC50 mutant/EC50 wild type, rounded to nearest integer
Method: as §1, with “The toxicity of the compound was measured on the mock-infected cells and was expressed as CC50, which represents the concentration of compound required to inhibit the growth of the cells by 50%. The selectivity index (SI) (ratio CC50/EC50) is an indication of the selectivity of the anti-HIV activity of the inhibitor.” left out, “respectively. […]” for “respectively.”
as §2

[8] = test system: HIV mutant H (K103N, Y181C); assay: Antiviral cellular assay, mutant HIV strain H; conditions: EC50 mutant/EC50 wild type, rounded to nearest integer
Method: as §1, with “The toxicity of the compound was measured on the mock-infected cells and was expressed as CC50, which represents the concentration of compound required to inhibit the growth of the cells by 50%. The selectivity index (SI) (ratio CC50/EC50) is an indication of the selectivity of the anti-HIV activity of the inhibitor.” left out, “respectively. […]” for “respectively.”
as §2

| Structure (SMILES) | EC50 (wild type HIV-LAI strain) [µM] | EC50 [1] [µM] | fold resistance mutant B (between brackets) (HIV mutant B (K103N)) | fold resistance mutant F (between brackets) (HIV mutant F (Y188L)) | fold resistance mutant K (between brackets) [2] | fold resistance mutant J (between brackets) [3] | fold resistance mutant D (between brackets) [4] | fold resistance mutant G (between brackets) [5] | fold resistance mutant C (between brackets) [6] | EC50 (HIV-2) [µM] | fold resistance mutant A (between brackets) (HIV mutant A (Y181C)) | fold resistance mutant I (between brackets) [7] | fold resistance mutant E (between brackets) (HIV mutant E (F227C)) | fold resistance mutant H (between brackets) [8] |
| --- | --- | --- | --- | --- | --- | --- | --- | --- | --- | --- | --- | --- | --- | --- |
| Cn1c2ccccc2c2c1cc(C(N)=O)c(=O)n2-c1ccc([N+](=O)[O-])cc1 [Compound 76] | 1 to 32 |  |  |  |  |  |  |  |  |  |  |  |  |  |
| N#Cc1cc2[nH]c3ccccc3c2n(-c2ccc([N+](=O)[O-])cc2)c1=O [Compound 1, 1-(4-nitrophenyl)-2-oxo-2,5-dihydro-1H-pyrido[3,2-b]indole-3-carbonitrile] |  | 7.94 | 4 | 4 | 1 | 5 | 3 | 2 | 8 | 6.31 | 8 | 3 | 6 | 5 |
